The source of these data is patent publication US11427588B2, “Compositions and methods for treating neurodegenerative diseases and cardiomyopathy” (THE REGENTS OF THE UNIVERSITY OF CALIFORNIA, priority 2013, dated 2022).

For one data set, the target named is PINK1^wt (Homo sapiens, UniProt Q9BXM7). Description: PINK1 kinase assay with ATP analogs (autophosphorylation, TRAP1 transphosphorylation). The class given is biochemical, H. sapiens. Also on record: kinase domain with c-terminal extension (PINK1, residues 148-581) with a C-terminal FLAG3 tag; made in house; host or cells: baculovirus / Sf21 insect cells. Conditions: for utilization to phosphorylate TRAP1: SF21 expressed PINK1; for transphosphorylation of TRAP1, activity versus ATP: GST tagged kinase domain 156-496 expressed in E. coli. An excerpt:
(§1) We expressed both PINK1^wt and PINK1^G309D GST tagged kinase domain (156-496PINK1) in E. coli and performed kinase assays with a series of ATP analogs.
(§2) Expression, purification and enzymatic characterization of PINK1: H. sapiens PINK1 kinase domain (PINK1, residues 156-496) with an N-terminal GST tag was expressed using a pGEX vector using standard techniques. H. sapiens PINK1 kinase domain with c-terminal extension (PINK1, residues 148-581) with a C-terminal FLAG3 tag was co-expressed with full length TRAP1 baculovirus/Sf21 insect cell system. […] The reaction was performed using 50 mM Tris-HCl, 150 mM NaCl, 10 mM MgCl2, 3 mM MnCl2, 0.5 mM DTT and 1 mg/ml substrate if indicated.
(§3) We constructed several FLAG3 tagged truncation variants of PINK1 and induced expression using baculovirus infected SF21 insect cells.
(§4) We expressed GST tagged kinase domain (PINK11156-496) in E. coli and performed a kinase assay.

For a further data set, the target named is PINK1^G309D (Homo sapiens, UniProt Q9BXM7, G309D). The data set is described as above. Also on record: kinase domain with c-terminal extension (PINK1, residues 148-581) with a C-terminal FLAG3 tag; made in house; host or cells: baculovirus / Sf21 insect cells. The class given is biochemical, H. sapiens. Conditions: GST tagged kinase domain 156-496 expressed in E. coli.
From the text: as §1, §2, §3, §4

In a further data set the test system is HeLa cells. As to the kind of experiment: Parkin recruitment to depolarized mitochondria in HeLa cells, PINK1 form not stated. The class given is cell-based. As for the experimental part:
Parkin phosphorylation and mitochondrial translocation assay: HeLa cells were grown in DMEM supplemented with 10% FBS. Log phase cells were plated in 24 well plates with glass coverslips (Mattek) pretreated with fibronectin. Cells were pretreated with 50 μM of the indicated compound, followed by transfection with MitoGFP, mCherry Parkin, and full length PINK1FLAG3 in a 1:4:2 ratio using Fugene 6 (Promega). Fields of cells were selected by expression of MitoGFP (6 fields/well-3 wells/condition) and imaged at five-minute intervals following depolarization with 5 μM CCCP. Quantification was performed according to published protocols^3 and by creation of a Matlab based script.
Our ability to enhance PINK1 activity in-vitro using KTP led us to investigate means by which to achieve enhanced activity in cells expressing PINK1. […] We treated cells with either kinetin or adenine (FIG. 2A) and measured Parkin localization following mitochondrial depolarization with CCCP (FIG. 2B). HeLa cells, which have low levels of endogenous PINK1 and PARKIN, were transfected with wildtype or PINK1^G309D, mCherryParkin, and mitoGFP. After 48 hours of incubation with 25 μM adenine, kinetin or equivalent DMSO, we imaged CCCP-mediated depolarization of mitochondria (FIGS. 2C, 2D) and calculated the percentage of GFP labelled mitochondria with mCherryParkin associated (FIG. 2E). […]

Data set [1] relates to PINK1 knockout derived hippocampal neurons. As to the kind of experiment: Mitochondrial motility assay in axons. The class given is cell-based, mouse. An excerpt: (§5) Mitochondrial motility assay: Primary hippocampal neuronal cultures were co-transfected with mitochondrial targeted GFP (mitoGFP) and mCherry-tagged synaptophysin (mCherrySynaptophysin) to allow for the live identification of mitochondria in axons.
(§6) To test if kinetin decreases motility we examined the mobility of axonal mitochondria in hippocampal neurons. Primary hippocampal neuronal cultures were co-transfected with mitoGFP and mCherry-tagged Synaptophysin (mCherrySynaptophysin) to allow for the live identification of mitochondria in axons. […] To test the PINK1 dependency of this process, we treated control mouse C57 (PINK1 wildtype) and PINK1 knockout derived hippocampal neurons with kinetin or 9MK and imaged their mitochondria.

The subject of another data set is rat hippocampal neurons. As to the kind of experiment: Mitochondrial motility assay in axons. The following applies: 50 μM, 48 hours pre-treatment. The class given is cell-based.
From the text: as §5, §6

Substrate in data set [2]: Nc1ncnc2c1ncn2[C@@H]1O[C@H](COP(=O)(O)OP(=O)(O)OP(=O)(O)O)[C@@H](O)[C@H]1O
As to the kind of experiment: purified protein, by the assay type. The class given is biochemical, H. sapiens. The following applies: other: catalytic constants for PINK1, nucleotide as substrate, autophosphorylation, SF21 expressed PINK1 148-581.

Setting [3] is: catalytic constants for PINK1, nucleotide as substrate, autophosphorylation, SF21 expressed PINK1 148-581.

PINK1^G309D, sequence (Q9BXM7 148-581 G309D): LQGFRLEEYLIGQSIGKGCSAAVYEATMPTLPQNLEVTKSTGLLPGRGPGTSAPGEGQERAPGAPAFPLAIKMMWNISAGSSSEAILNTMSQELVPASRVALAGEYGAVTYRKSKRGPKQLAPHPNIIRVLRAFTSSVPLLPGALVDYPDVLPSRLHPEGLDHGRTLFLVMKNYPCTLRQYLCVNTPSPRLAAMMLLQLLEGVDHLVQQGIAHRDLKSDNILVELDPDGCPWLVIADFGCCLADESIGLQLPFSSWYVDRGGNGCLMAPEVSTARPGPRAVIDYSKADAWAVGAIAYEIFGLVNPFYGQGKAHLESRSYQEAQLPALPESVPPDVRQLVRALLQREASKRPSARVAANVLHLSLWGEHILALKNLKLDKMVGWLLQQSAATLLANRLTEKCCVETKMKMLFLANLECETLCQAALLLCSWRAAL

For the molecule `O=P(O)(O)OP(=O)(O)OP(=O)(O)OC[C@H]1O[C@@H](n2cnc3c(NCCc4ccccc4)ncnc32)[C@H](O)[C@@H]1O` [N^6 Phenethyl ATP, reference compound], the “utilization to phosphorylate TRAP1” value at PINK1^wt is reported as “not”.

For `O=P(O)(O)OP(=O)(O)OP(=O)(O)OC[C@H]1O[C@@H](n2cnc3c(NCc4ccccc4)ncnc32)[C@H](O)[C@@H]1O` [N^6 Benzyl, N^6 Benzyl ATP, reference compound], at PINK1^wt, the “utilization to phosphorylate TRAP1” value is recorded as “not”.

In general, Km refers to the concentration of substrate that gives half-maximal velocity. With N^6 furfuryl ATP [KTP], the “PINK1 activity stimulation versus other N6 substituted ATP analogs” value at PINK1^wt (FIG. 12) is “stimulated”. In addition, on PINK1^wt, the “transphosphorylation of TRAP1, activity versus ATP” value is reported as “amplified” and the “utilization to phosphorylate TRAP1” value was “utilizes”. Moreover, the “transphosphorylation of TRAP1, activity versus ATP” value at PINK1^wt (listed as N^6 FF ATP) was “more efficiently than ATP”. In addition, the “fold higher Vmax versus ATP” value at PINK1^wt (PINK1 autophosphorylation) came to 1.84 fold. At PINK1^wt (setting [3]), the Km amounted to 51.7 µM and the Vmax came out at 0.0098 ± 0.002 min⁻¹. Besides, on PINK1^G309D, the autophosphorylation entry is reported as “increased levels of autophosphorylation” and the “transphosphorylation of TRAP1, activity versus ATP” value is listed as “amplified”. Besides, the “transphosphorylation of TRAP1, activity versus ATP” value on PINK1^G309D (listed as N^6 FF ATP) is listed as “increased catalytic rate than ATP”.

`c1ccc(CNc2ncnc3nc[nH]c23)cc1` [N6 benzyl adenine, reference compound]: in the data set on HeLa cells, the “Parkin recruitment to CCCP depolarized mitochondria” value is listed as “less active than kinetin”.

Consider `Cn1cnc2c(NCc3ccco3)ncnc21` [9-methyl-Kinetin, reference compound], for which the mitochondrial motility result in data set [1] is on record as “no change in motility”. Further, the “mitochondrial movement / motility” value with rat hippocampal neurons is reported as “did not affect mitochondrial motility”.

B1: PINK1^wt (Homo sapiens) (protein)
chain: LQGFRLEEYLIGQSIGKGCSAAVYEATMPTLPQNLEVTKSTGLLPGRGPGTSAPGEGQERAPGAPAFPLAIKMMWNISAGSSSEAILNTMSQELVPASRVALAGEYGAVTYRKSKRGPKQLAPHPNIIRVLRAFTSSVPLLPGALVDYPDVLPSRLHPEGLGHGRTLFLVMKNYPCTLRQYLCVNTPSPRLAAMMLLQLLEGVDHLVQQGIAHRDLKSDNILVELDPDGCPWLVIADFGCCLADESIGLQLPFSSWYVDRGGNGCLMAPEVSTARPGPRAVIDYSKADAWAVGAIAYEIFGLVNPFYGQGKAHLESRSYQEAQLPALPESVPPDVRQLVRALLQREASKRPSARVAANVLHLSLWGEHILALKNLKLDKMVGWLLQQSAATLLANRLTEKCCVETKMKMLFLANLECETLCQAALLLCSWRAAL
notes: kinase domain with c-terminal extension (PINK1, residues 148-581) with a C-terminal FLAG3 tag; made in house; host or cells: baculovirus / Sf21 insect cells
As a reminder, the kcat is the number of substrate molecules converted per active site and unit of time at saturation. As to B1, in data set [2], the Km amounted to 18.4 µM and the kcat stood at 8.83e-05 ± 1.7e-05 s⁻¹.
